Consider 71 compounds from PubChem BioAssay AID179 (DTP/NCI, 2004).

The test concerns CEM cells HIV-1 protection, formazan growth assay. Nature of the test: NCI AIDS Antiviral Assay. The following applies: for IC50: measured here: growth of uninfected CEM cells. The essentials: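 Soluble formazan readout of cell growth; CEM cells ± HIV-1; 5 drug concs. ≥50% protection → retest; ≥50% again = moderately active; reproducible 100% = confirmed active.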

Active and inactive are the calls of the source.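 The calls were made as follows: active = compounds giving half or more protection of infected cells from virus-caused growth loss, again on retest; inactive = the rest.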 Where a SMILES comes first, the peptide text is derived from it. [ ]: non-standard residue; d: D form. The star is where a group is joined. mTyr = N[CH](Cc1cccc(O)c1)C(=O)O; Cbz = O=C(OCc1ccccc1)*; OBn = c1ccc(CO*)cc1 A value given as a limit tells only on which side of the number the result lay.

Take `Cc1cnoc1NC1=CC(=O)C(=O)c2ccccc21`: the EC50 was over 200 µM and the IC50 was 26.3 µM.

Turning to `CNC/C(Cl)=N/S(=O)(=O)c1ccc(C)cc1`, the EC50 was over 58.9 µM and the half-maximal inhibitory concentration (IC50) stood at 2.75 µM.

Consider `O=Cc1cc2c(cc1-c1c(C=O)ccc3c1OCO3)OCO2`, for which the EC50 was over 63.1 µM and the IC50 is 33.1 µM.

Consider `CCCOc1csc([C@H]2CCC3[C@@H]4CC=C5C[C@@H](OC(=O)CCC(=O)O)CC[C@]5(C)C4CC[C@@]32C)n1` (stereo partly specified), for which the EC50 is over 47.9 µM and the IC50 worked out at 18.2 µM.

Regarding `Cn1ncc2c(Nc3ccc(Cl)cc3)c3ccccc3nc21`, the outcome was inactive.

For the compound `O=C1OC2C=CC1C1(CCOC1=O)C2` (stereo unspecified), the EC50 is over 200 µM and the half-maximal inhibitory concentration (IC50) is over 200 µM.

On to `N#Cc1c(N2CCOCC2)ncn(-c2ccccc2)c1=O`, for which the EC50 was over 200 µM and the IC50 is over 200 µM.

Consider `O=S(=O)(O)c1ccc(OCCCCCCCCOc2ccc(S(=O)(=O)O)cc2)cc1`, for which the EC50 is over 14.5 µM and the IC50 was over 14.5 µM.

Consider `CCN1C(=O)/C(=C\c2coc3ccccc3c2=O)SC1=S`, for which the EC50 was over 0.813 µM and the IC50 was over 0.813 µM.

Turning to `O=C(O)c1cc2c([nH]1)-c1cc(C(=O)O)c(C(=O)O)nc1C(=O)C2=O`, the result was inactive.

Regarding `CC1(C)OP(=O)(c2ccccc2)C=C1Sc1ccc([N+](=O)[O-])cc1[N+](=O)[O-]` (stereo unspecified), the concentration for a half-maximal effect (EC50) was 44.7 µM and the IC50 was determined as 105 µM.

On to `CC1(C)OC(=O)C(C#N)=C1/C=C/c1coc2ccc(Cl)cc2c1=O`, for which the EC50 is over 29.5 µM and the IC50 is over 29.5 µM.

For the compound `Cc1nccnc1N1CCCCC1`, the EC50 was over 200 µM and the IC50 is over 200 µM.

`O=C(O)c1cc(S(=O)(=O)Nc2cc(Cc3cc(NS(=O)(=O)c4ccc(O)c(C(=O)O)c4)c(O)c(C(=O)O)c3)cc(C(=O)O)c2O)ccc1O`: the EC50 was over 100 µM and the IC50 is over 100 µM.

Turning to `N#Cc1ccc(OCc2ccc3nc(-c4ccccc4)c(Cl)nc3c2)cc1`, the EC50 was over 100 µM and the IC50 is over 100 µM.

For `N/C(=N\N=C\c1ccc2c(c1)OCO2)NO`, the EC50 is over 200 µM and the IC50 was 105 µM.

As to `CCOc1cc(C2=NNc3n[nH]c(=S)n3N2)ccc1O`, the EC50 is 151 µM and the concentration for half-maximal inhibition (IC50) was 331 µM.

For the compound `O=c1[nH]c2nn(-c3ccccc3)cc2c(=O)n1OS(=O)(=O)c1ccccc1`, the EC50 was over 200 µM and the IC50 is over 200 µM.

Regarding `CCOC(=O)c1nc2ccc(Cl)cc2c2c1CCO2`, the EC50 was over 5.25 µM and the IC50 is over 5.25 µM.

`CCC1CC2CN3CCc4c([nH]c5c(-c6c(OC)ccc7c8c([nH]c67)[C@]6(C(=O)OC)CC7CC(CC)C6N(CC8)C7)c(O)ccc45)[C@](C(=O)OC)(C2)C13` (stereo partly specified): the EC50 was over 200 µM and the IC50 turned out to be 12.9 µM.

As to `Cc1ccc(SCC(CF)OC(C)n2cnc3c(Cl)nc(N)nc32)cc1` (stereo unspecified), the EC50 is over 200 µM and the IC50 worked out at 38 µM.

With `CCN(CC)Cc1nc2sc3c(c2c(=O)n1-c1ccccc1)CCCC3`, the EC50 is over 200 µM and the IC50 stood at 39.8 µM.

As for `NNC(=O)c1nnn(CCc2ccccc2)c1C(=O)NN`, the EC50 was over 200 µM and the IC50 is over 200 µM.

In the case of `O=C(O)c1cc2oc(-c3ccccc3)cc2[nH]1`, the EC50 is over 219 µM and the IC50 was determined as 155 µM.

Turning to `CC=C=CCN(C)Cc1ccccc1`, the EC50 was over 324 µM and the IC50 was over 324 µM.

As to `C[C@@]1(CI)OC(=O)N2CCC[C@H]21`, the EC50 was over 891 µM and the IC50 was over 891 µM.

As to `COC(=O)C1Cc2c(OC)ccc(OC)c2CC(C(=O)OC)C1=O` (stereo unspecified), the EC50 was over 200 µM and the 50% inhibitory concentration (IC50) is 182 µM.

Turning to `COC(=O)C1=C(OC)C(C(=O)OC)[C@@]2(C)C(C(=O)OC)=C(OC)C(C(=O)OC)[C@@]12C` (stereo partly specified), the EC50 is over 417 µM and the IC50 was over 417 µM.

On to `COC(=O)/C(=N\NC(=O)C[N+](C)(C)C)C(C(=O)OC)C(=O)C(=O)Nc1ccccc1C(N)=O` (stereo unspecified), for which the EC50 was over 501 µM and the IC50 was over 501 µM.

Consider `COC/N=C(/N)NC#N`, for which the EC50 is over 692 µM and the IC50 was over 692 µM.

On to `COC(=O)C1(C)NCCc2c1[nH]c1ccccc21` (stereo unspecified), for which the EC50 is over 331 µM and the IC50 is over 331 µM.

On to `Cc1c(C)c2ccc3oc4ccccc4c3c2oc1=O`, for which the EC50 was over 38 µM and the IC50 is over 38 µM.

Consider `CCOC(=O)NC(OCCN(C)C)(C(F)(F)F)C(F)(F)F`, for which the EC50 is over 200 µM and the IC50 is over 200 µM.

For `Cc1ccc(N2C(=O)C(Cl)=C(Cl)C2=O)cc1`, the outcome was inactive.

Consider `NC1CC(=O)c2csc(Br)c21` (stereo unspecified), for which the EC50 is over 57.5 µM and the IC50 was found to be 11 µM.

With `CN1CCc2ccccc2/C(=C(/O)c2ccccc2)C1=O`, the result was inactive.

Take `COc1cc2cc(C(=O)N3CC(CCl)c4c3cc([N+](C)(C)Cc3ccc([N+](=O)[O-])n3C)c3ccccc43)[nH]c2c(OC)c1OC` (stereo unspecified): the EC50 is over 2 µM and the IC50 turned out to be 1.26 µM.

In the case of `CCC([NH-])C(=O)O.CCC([NH-])C(=O)O.[Cu+2]` (stereo unspecified), the EC50 was over 200 µM and the IC50 stood at 18.2 µM.

On to `CC1=CC2OC3CC4OC(=O)/C=C/C=C/C(C(C)O)OCC(O)C(C)CC(=O)OCC2(CC1O)C4(C)C31CO1` (stereo unspecified), for which the EC50 is over 0.2 µM and the IC50 is 0.0631 µM.

`O/N=C1/CCCC/C1=C/c1ccc(Cl)cc1`: the result was inactive.

In the case of `Cc1cc(NC(=O)Nc2ccc(F)cc2)no1`, the EC50 was over 200 µM and the IC50 was over 200 µM.

For `CCCCCN(CCCCC)c1ccc(/C=C/c2ccnc3ccccc23)cc1`, the EC50 was over 67.6 µM and the IC50 was over 67.6 µM.

For `Cc1cc(S(=O)(=O)O)ccc1N=Nc1ccc(N=Nc2cc(S(=O)(=O)O)c3ccccc3c2O)c(C)c1`, the EC50 was over 100 µM and the IC50 was over 100 µM.

For `S=C1SCN(C(c2ccccc2)c2ccccc2)CN1C(c1ccccc1)c1ccccc1`, the EC50 was over 200 µM and the IC50 was found to be 4.47 µM.

`COC(C)(C)[C@@H]1CCCN1C1=C(C)C(=O)OC1`: the EC50 was over 200 µM and the IC50 is over 200 µM.

Turning to `COc1ccc(CNc2nc3cc(C(F)(F)F)ccc3nc2C(=O)O)cc1OC`, the EC50 is over 200 µM and the concentration for half-maximal inhibition (IC50) was 66.1 µM.

For the compound `C/C=C1\[C@H]2C=C(C)C[C@@]1(N)c1ccc(=O)[nH]c1[C@@H]2O`, the EC50 is over 479 µM and the IC50 is over 479 µM.

With `O=C(NC(CCCCN1C(=O)c2ccccc2C1=O)P(=O)(Oc1ccccc1)Oc1ccccc1)OCc1ccccc1` (stereo unspecified), the EC50 is over 200 µM and the IC50 was determined as 95.5 µM.

Regarding `CO/N=C(/C(=O)N(C(=O)/C(=N/OC)c1csc(NC(c2ccccc2)(c2ccccc2)c2ccccc2)n1)n1cnn(CC(=O)OC(C)(C)C)c1=O)c1csc(NC(c2ccccc2)(c2ccccc2)c2ccccc2)n1`, the EC50 is over 200 µM and the IC50 came to 174 µM.

For the compound `Cn1c(N=P(c2ccccc2)(c2ccccc2)c2ccccc2)c([N+](=O)[O-])c(=O)n(C)c1=O`, the result was inactive.

For the compound `COC1CCC(=O)N1CN(C(C)=O)c1ccc(C)cc1` (stereo unspecified), the result was inactive.

As to `CC(C)(C)c1ccc2c(c1)CNCCNCCNCc1cc(C(C)(C)C)ccc1OCC1(CO2)COc2ccc(C(C)(C)C)cc2CNCCNCCNCc2cc(C(C)(C)C)ccc2OC1`, the EC50 is over 1.51 µM and the IC50 is 0.813 µM.

On to `CS(=O)(=O)N(CCC#N)c1ccc(/C=C2\N=C(c3ccccc3Cl)OC2=O)cc1`, for which the EC50 was over 219 µM and the concentration for half-maximal inhibition (IC50) was over 219 µM.

As for `C=C1CCC(=O)NC1=O`, the result was inactive.

For the compound `COC1CC(C)(NC(=O)C(F)(F)F)C2OC(c3ccccc3)OCC2O1` (stereo unspecified), the EC50 was over 200 µM and the IC50 is over 200 µM.

With `Cc1cc(=O)n2[nH]nnc2n1`, the EC50 is over 200 µM and the IC50 was over 200 µM.

Consider `Cc1ccc(Nc2nc(NS(=O)(=O)c3cc(C(=O)Nc4ccc(Cl)cc4)c(Cl)cc3S)n[nH]2)cc1`, for which the EC50 was over 195 µM and the IC50 turned out to be 178 µM.

Consider `CC(NNC(=S)N1CCCC1)c1cccnn1` (stereo unspecified), for which the EC50 is over 200 µM and the IC50 stood at 0.372 µM.

Consider `O=S(=O)(OCCCCOS(=O)(=O)c1ccc(Cl)c(Cl)c1)c1ccc(Cl)c(Cl)c1`, for which the outcome was inactive.

Take `COC(=O)C(Cc1cccc(O)c1)NC(=O)C(CC(=O)OCc1ccccc1)NC(=O)OCc1ccccc1` (stereo unspecified) (Cbz-Asp(OBn)-[mTyr]-OMe; configuration not given here): the EC50 was over 200 µM and the IC50 came to 91.2 µM.

For `C[C@@H]1OC(=O)N2CCCC(=C3SCCCS3)C12` (stereo partly specified), the result was inactive.

For the compound `COc1cc2ccn3c4cc(OC)c(OC)cc4cc3c2cc1OC`, the EC50 was 7.94 µM and the IC50 turned out to be 8.13 µM.

With `COC(=O)[C@H](Cc1ccccc1)NC(=O)N(CCC#N)CCCCN(CCC#N)C(=O)N[C@@H](Cc1ccccc1)C(=O)OC`, the EC50 is over 200 µM and the IC50 stood at 115 µM.

Consider `COc1ccc2nc3cc(Cl)ccc3c(NCCCNCCCNc3c4ccc(Cl)cc4nc4ccc(OC)cc34)c2c1`, for which the EC50 was over 2 µM and the IC50 came to 0.0148 µM.

Regarding `O=C(O)CCCCCCCCCCCOc1ccccc1`, the EC50 was over 200 µM and the IC50 came to 63.1 µM.

As to `C[Si](C)(C)O[C@@H]1CCCC1N` (stereo partly specified), the outcome was inactive.

With `O=C(NN(C(=O)c1ccc([N+](=O)[O-])cc1)c1ccccc1)c1ccc([N+](=O)[O-])cc1`, the EC50 is over 200 µM and the IC50 came out at 36.3 µM.

For `COc1cc(/C=C2/SC(c3ccccc3)N(Cc3ccccc3)C2=O)cc(OC)c1OC` (stereo unspecified), the EC50 is over 200 µM and the IC50 was determined as 25.7 µM.

Consider `O=C1NC(CO)(CO)CO1`, for which the EC50 was over 200 µM and the IC50 is over 200 µM.

Regarding `CC(=O)NC1=N/C(=C\c2ccc(Cl)cc2)C(=O)N1/C=C1\C(=O)Oc2ccccc2C1=O`, the EC50 was over 200 µM and the IC50 amounted to 87.1 µM.

In the case of `O=Nc1c(Br)cc(Br)c2ccc3c(Br)cc(Br)c(N=O)c3c12`, the EC50 is over 50.1 µM and the IC50 is over 50.1 µM.
